Experimental data published in patent US20070092474A1, “Carnitine salt, preliposome which contains it and dermocosmetic formula for topical use based upon said carnitine salt” (priority 2003, published 2007).
Values joined by “and” are separate entries in the source; they are usually repeats but may differ in a detail not shown here. Equal entries are not always repeated.

Test system: skin blemishes caused by cellulite and localised adiposity
Assay: Liquid crystal contact thermography of the thighs, clinical score of cellulite stage
Assay type: in vivo, female volunteers
Set-up: key: 9: IV SERIOUS; 8: IV AVERAGE; 7: IV INITIAL; 6: III SERIOUS; 5: III AVERAGE; 4: III INITIAL; 3: II SERIOUS; 2: II AVERAGE; 1: II INITIAL
Conditions: clinical score per volunteer, MEDIA = mean
Protocol: A dermatological test was carried out on 25 female volunteers between 18 and 65 years of age, with the backing of the Department of Physiological and Pharmacological Sciences of the university of Pavia. The investigation aimed to check the modification of three anatomical-physiological parameters, qualifying the unaesthetic-functional aspect connected to the manifestation of so-called cellulite and subcutaneous hypertriglyceridaemia: measurement of the skin folds, measurement of the circumference of the thighs, thermographic skin measurement.
The test stretched out over 60 days with the continual daily application of the aforementioned preparation of cosmetic gel. The measurements were carried out after 15, 30 and 60 days. The detail of the test protocol and of the results obtained is shown hereafter.
25 female volunteers aged between 18 and 65, with the presence of skin blemishes caused by cellulite and localised adiposity, were selected according to the following criteria: good general state of health, absence of skin pathologies, not being under medication, commitment not to vary the normal daily routine, no medical history of atopy.
The samples were tested by uniformly applying them on “Glute SX Glute DJ (Femoris Posto SX Femoris Posto DX Femoris Ant. SX Femoris Ant. DX” every day at least once per day for the entire duration of the test.
At the time of inclusion in the study and during the subsequent checks after 15 days (T15), after 30 days (T30) and after 60 days (T60) of treatment the following instrumental measurements were taken: • plicometry (through a plicometer) • thigh circumference (through a measuring tape broken into millimetres) • contact thermography (through liquid crystal thermographic plates).
For its part, thermography allows the extension and the gravity of the microcirculatory skin damage and, consequently, the subcutaneous damage, to be evaluated based upon the regional skin temperature variations. Such temperature variations reveal the presence of subschemic areas (cold areas, due to regional hypothermia) or of phenomena of capillary-venous stasis (hot areas). The diagnostic properties of thermography are relative to the recognition of maldistribution of microcirculation. In particular, “liquid crystal contact thermography” was used, in which the property of cholesteric liquid crystals (of which the plates are made up) of modifying their spatial arrangement according to the temperature is exploited; each spatial modification corresponds to a different refraction of the light rays which thus assume different colours according to the incidence of the light on the faces of the cholesteric microcrystals: in practice, when the thermographic plates are placed upon the skin of the zone to be investigated, these assume different colourations according to the skin temperature. Conventionally, the thermographic images observed during the course of the different stages of evolution of the Edematous fibrosclerotic panniculopathy from stasis of the lower limbs can be classified in four, or more, thermographic stages; the latter approximately correspond to the gravity of the four istologic stages in which the moments of evolution of the panniculosis are divided.

Substance: carnitine hydroxycitrate [carnitine hydroxy citrate]
- LEFT THIGH THERMOGRAPHY 1/3 T0: 5 (9×) and 4 (3×) and 7 (4×) and 2 and 6 (7×) and 3
- LEFT THIGH THERMOGRAPHY 1/3 T0 (mean): 5.3
- LEFT THIGH THERMOGRAPHY 1/3 T15: 5 (9×) and 4 (5×) and 3 (3×) and 7 (2×) and 2 and 6 (5×)
- LEFT THIGH THERMOGRAPHY 1/3 T15 (mean): 4.8
- LEFT THIGH THERMOGRAPHY 1/3 T30: 2 (7×) and 4 (10×) and 3 (2×) and 6 (3×) and 5 (3×)
- LEFT THIGH THERMOGRAPHY 1/3 T30 (mean): 3.7
- LEFT THIGH THERMOGRAPHY 1/3 T60: 2 (11×) and 3 (7×) and 4 (4×) and 5 (2×) and 6
- LEFT THIGH THERMOGRAPHY 1/3 T60 (mean): 3.0
- LEFT THIGH THERMOGRAPHY 2/3 T0: 4 (5×) and 5 (10×) and 3 (3×) and 7 and 2 and 6 (5×)
- LEFT THIGH THERMOGRAPHY 2/3 T0 (mean): 4.7
- LEFT THIGH THERMOGRAPHY 2/3 T15: 3 (7×) and 4 (11×) and 5 (3×) and 6 (3×) and 2
- LEFT THIGH THERMOGRAPHY 2/3 T15 (mean): 4.0
- LEFT THIGH THERMOGRAPHY 2/3 T30: 2 (6×) and 3 (12×) and 4 (6×) and 5
- LEFT THIGH THERMOGRAPHY 2/3 T30 (mean): 3.1
- LEFT THIGH THERMOGRAPHY 2/3 T60: 2 (9×) and 3 (11×) and 4 (4×) and 1
- LEFT THIGH THERMOGRAPHY 2/3 T60 (mean): 2.7
- LEFT THIGH THERMOGRAPHY 3/3 T0: 3 (3×) and 5 (3×) and 4 (16×) and 2 (2×) and 7
- LEFT THIGH THERMOGRAPHY 3/3 T0 (mean): 4.0
- LEFT THIGH THERMOGRAPHY 3/3 T15: 3 (7×) and 4 (11×) and 5 (3×) and 2 (4×)
- LEFT THIGH THERMOGRAPHY 3/3 T15 (mean): 3.5
- LEFT THIGH THERMOGRAPHY 3/3 T30: 2 (7×) and 3 (11×) and 4 (5×) and 1 (2×)
- LEFT THIGH THERMOGRAPHY 3/3 T30 (mean): 2.8
- LEFT THIGH THERMOGRAPHY 3/3 T60: 1 (3×) and 3 (11×) and 2 (10×) and 4
- LEFT THIGH THERMOGRAPHY 3/3 T60 (mean): 2.4
- RIGHT THIGH THERMOGRAPHY 1/3 T0: 5 (10×) and 4 (3×) and 7 (3×) and 3 (2×) and 6 (6×) and 8
- RIGHT THIGH THERMOGRAPHY 1/3 T0 (mean): 5.3
- RIGHT THIGH THERMOGRAPHY 1/3 T15: 5 (9×) and 4 (6×) and 7 (3×) and 3 (2×) and 6 (5×)
- RIGHT THIGH THERMOGRAPHY 1/3 T15 (mean): 5.0
- RIGHT THIGH THERMOGRAPHY 1/3 T30: 2 (7×) and 4 (9×) and 3 (2×) and 5 (4×) and 6 (2×) and 7
- RIGHT THIGH THERMOGRAPHY 1/3 T30 (mean): 3.8
- RIGHT THIGH THERMOGRAPHY 1/3 T60: 2 (11×) and 3 (6×) and 4 (5×) and 5 (2×) and 6
- RIGHT THIGH THERMOGRAPHY 1/3 T60 (mean): 3.0
- RIGHT THIGH THERMOGRAPHY 2/3 T0: 4 (6×) and 5 (11×) and 7 and 3 (3×) and 6 (4×)
- RIGHT THIGH THERMOGRAPHY 2/3 T0 (mean): 4.8
- RIGHT THIGH THERMOGRAPHY 2/3 T15: 3 (5×) and 4 (12×) and 5 (4×) and 6 (3×) and 2
- RIGHT THIGH THERMOGRAPHY 2/3 T15 (mean): 4.1
- RIGHT THIGH THERMOGRAPHY 2/3 T30: 2 (4×) and 3 (13×) and 4 (7×) and 5
- RIGHT THIGH THERMOGRAPHY 2/3 T30 (mean): 3.2
- RIGHT THIGH THERMOGRAPHY 2/3 T60: 2 (8×) and 3 (12×) and 4 (4×) and 1
- RIGHT THIGH THERMOGRAPHY 2/3 T60 (mean): 2.8
- RIGHT THIGH THERMOGRAPHY 3/3 T0: 3 (4×) and 5 (4×) and 4 (15×) and 2 and 7
- RIGHT THIGH THERMOGRAPHY 3/3 T0 (mean): 4.0
- RIGHT THIGH THERMOGRAPHY 3/3 T15: 3 (7×) and 4 (11×) and 5 (3×) and 2 (4×)
- RIGHT THIGH THERMOGRAPHY 3/3 T15 (mean): 3.5
- RIGHT THIGH THERMOGRAPHY 3/3 T30: 2 (7×) and 3 (10×) and 4 (7×) and 1
- RIGHT THIGH THERMOGRAPHY 3/3 T30 (mean): 2.9
- RIGHT THIGH THERMOGRAPHY 3/3 T60: 1 (3×) and 3 (12×) and 2 (9×) and 4
- RIGHT THIGH THERMOGRAPHY 3/3 T60 (mean): 2.4
